Laboratory results reported in paper PMC10029980 (Journal of medicinal chemistry, 2022).
Values belong to the molecule of their own block, whether it stands above or below them.

Columns and labels:
[1] = biological target: human recombinant PAK1 (kinase domain) (Homo sapiens, UniProt Q13153); test: Z'-LYTE FRET kinase assay, PAK1 inhibition; type: biochemical; conditions: for PAK1 inhibitory activity and selectivity of NVS-PAK1-1 conjugates: tested for PAK1, PAK2 and PAK4 inhibition (Table S1)
[2] = biological target: human recombinant PAK2 (full length) (Homo sapiens, UniProt Q13177); test: Z'-LYTE FRET kinase assay, PAK2 inhibition; type: biochemical
PAK1 [3] = biological target: T1, PAK1 (Homo sapiens, UniProt Q13153); test: PAK1 degradation by immunoblot in MCF7 and OVCAR3 cells; type: cell-based
PAK1 [4] = biological target: T1, PAK1; test: PAK1 degradation in Panc1 cells; type: cell-based; conditions: compared with BJG-05-014 and BJG-05-027, Figure S2
Nluc-PAK1 = Nluc-PAK1 (Homo sapiens, UniProt Q13153+Q96SW2); test: Nluc-PAK1 luciferase quantitation of PAK1 expression; type: cell-based
MOLT4 cells proteome = test: Global multiplexed mass spectrometry proteomics in MOLT4 cells; type: cell-based, human; conditions: 1 µM, 5 hr
[5] = tested on: phosphorylation of MEK1 at S298 and of ERK; test: MEK and ERK phosphorylation by immunoblot in OVCAR3 and MCF7 cells; type: cell-based; conditions: 10 nM, 24 hr
MCF7 cells = test: MTT cell proliferation, MCF7; type: cell-based; conditions: for EC50: Homo sapiens, MCF7, 96 h, read-out: EC50 anti-proliferative, MCF7
OVCAR3 cells = test: MTT cell proliferation, OVCAR3; type: cell-based; conditions: for EC50: Homo sapiens, OVCAR-3, 96 h, read-out: EC50 anti-proliferative, OVCAR3
OMM1 cells = test: MTT cell proliferation, OMM1; type: cell-based; conditions: MTT assay, 96 hr, PAK2-dependent cells
HEY-A8 cells = test: MTT cell proliferation, HEY-A8; type: cell-based; conditions: MTT assay, 96 hr, PAK2-dependent cells
[6] = cited from earlier work
[7] = MCF7 and OVCAR3 cells, 24 hr treatment

Sequence of human recombinant PAK2 (full length) (Q13177 whole entry): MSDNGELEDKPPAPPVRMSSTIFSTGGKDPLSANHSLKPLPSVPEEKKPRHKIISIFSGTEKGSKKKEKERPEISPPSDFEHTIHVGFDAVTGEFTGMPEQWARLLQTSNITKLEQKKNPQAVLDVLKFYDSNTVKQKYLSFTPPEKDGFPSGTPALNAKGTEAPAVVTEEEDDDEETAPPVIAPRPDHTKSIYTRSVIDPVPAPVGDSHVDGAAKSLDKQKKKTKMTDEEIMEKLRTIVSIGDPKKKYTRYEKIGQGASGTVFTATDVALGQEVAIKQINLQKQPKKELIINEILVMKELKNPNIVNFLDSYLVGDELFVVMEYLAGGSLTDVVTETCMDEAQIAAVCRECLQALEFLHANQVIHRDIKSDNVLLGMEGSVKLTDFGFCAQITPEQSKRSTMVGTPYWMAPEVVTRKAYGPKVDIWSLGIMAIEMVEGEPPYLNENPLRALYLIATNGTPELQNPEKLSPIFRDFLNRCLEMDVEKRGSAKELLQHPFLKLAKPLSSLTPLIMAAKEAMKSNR
T1 sequence (Q13153 whole entry): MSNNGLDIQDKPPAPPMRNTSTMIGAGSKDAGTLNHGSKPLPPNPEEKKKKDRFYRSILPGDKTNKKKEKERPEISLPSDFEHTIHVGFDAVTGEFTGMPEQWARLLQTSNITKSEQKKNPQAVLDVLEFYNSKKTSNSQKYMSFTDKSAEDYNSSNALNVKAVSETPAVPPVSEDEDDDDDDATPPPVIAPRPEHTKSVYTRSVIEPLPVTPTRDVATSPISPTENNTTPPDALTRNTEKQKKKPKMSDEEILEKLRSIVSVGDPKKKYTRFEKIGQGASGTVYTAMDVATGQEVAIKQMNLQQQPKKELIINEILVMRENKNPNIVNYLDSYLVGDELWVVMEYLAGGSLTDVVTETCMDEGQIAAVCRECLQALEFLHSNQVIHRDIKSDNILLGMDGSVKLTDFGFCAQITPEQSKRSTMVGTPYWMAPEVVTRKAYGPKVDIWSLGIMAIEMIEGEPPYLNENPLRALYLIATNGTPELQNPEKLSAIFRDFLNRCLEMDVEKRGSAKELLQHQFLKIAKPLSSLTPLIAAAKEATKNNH
Sequence of human recombinant PAK1 (kinase domain) (Q13153 270-521 limits assumed): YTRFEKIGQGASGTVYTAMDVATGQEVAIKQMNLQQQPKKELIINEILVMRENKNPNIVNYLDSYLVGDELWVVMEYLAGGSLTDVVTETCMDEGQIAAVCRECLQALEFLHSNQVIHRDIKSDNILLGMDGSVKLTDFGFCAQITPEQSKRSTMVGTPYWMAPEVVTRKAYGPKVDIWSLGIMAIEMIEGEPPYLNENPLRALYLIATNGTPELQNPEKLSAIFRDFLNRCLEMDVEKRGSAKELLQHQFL
Sequence of Nluc-PAK1 (Q13153 whole entry): as the sequence (Q13153 whole entry) above
Sequence of Nluc-PAK1 (Q96SW2 whole entry): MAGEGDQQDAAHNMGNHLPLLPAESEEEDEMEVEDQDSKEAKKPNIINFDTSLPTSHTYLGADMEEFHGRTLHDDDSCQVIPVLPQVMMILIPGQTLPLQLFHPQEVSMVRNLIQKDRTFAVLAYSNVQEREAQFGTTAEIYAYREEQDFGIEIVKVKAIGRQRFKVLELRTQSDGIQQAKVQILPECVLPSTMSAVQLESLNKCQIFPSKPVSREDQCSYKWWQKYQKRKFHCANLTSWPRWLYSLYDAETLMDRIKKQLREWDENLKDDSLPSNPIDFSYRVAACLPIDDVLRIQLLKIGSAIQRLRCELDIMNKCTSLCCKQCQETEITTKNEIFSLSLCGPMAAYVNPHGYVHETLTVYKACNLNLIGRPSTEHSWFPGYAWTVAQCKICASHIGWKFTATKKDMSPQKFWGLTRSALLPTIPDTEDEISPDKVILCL
Sequence of Nluc-PAK1 (Q16531 whole entry partner): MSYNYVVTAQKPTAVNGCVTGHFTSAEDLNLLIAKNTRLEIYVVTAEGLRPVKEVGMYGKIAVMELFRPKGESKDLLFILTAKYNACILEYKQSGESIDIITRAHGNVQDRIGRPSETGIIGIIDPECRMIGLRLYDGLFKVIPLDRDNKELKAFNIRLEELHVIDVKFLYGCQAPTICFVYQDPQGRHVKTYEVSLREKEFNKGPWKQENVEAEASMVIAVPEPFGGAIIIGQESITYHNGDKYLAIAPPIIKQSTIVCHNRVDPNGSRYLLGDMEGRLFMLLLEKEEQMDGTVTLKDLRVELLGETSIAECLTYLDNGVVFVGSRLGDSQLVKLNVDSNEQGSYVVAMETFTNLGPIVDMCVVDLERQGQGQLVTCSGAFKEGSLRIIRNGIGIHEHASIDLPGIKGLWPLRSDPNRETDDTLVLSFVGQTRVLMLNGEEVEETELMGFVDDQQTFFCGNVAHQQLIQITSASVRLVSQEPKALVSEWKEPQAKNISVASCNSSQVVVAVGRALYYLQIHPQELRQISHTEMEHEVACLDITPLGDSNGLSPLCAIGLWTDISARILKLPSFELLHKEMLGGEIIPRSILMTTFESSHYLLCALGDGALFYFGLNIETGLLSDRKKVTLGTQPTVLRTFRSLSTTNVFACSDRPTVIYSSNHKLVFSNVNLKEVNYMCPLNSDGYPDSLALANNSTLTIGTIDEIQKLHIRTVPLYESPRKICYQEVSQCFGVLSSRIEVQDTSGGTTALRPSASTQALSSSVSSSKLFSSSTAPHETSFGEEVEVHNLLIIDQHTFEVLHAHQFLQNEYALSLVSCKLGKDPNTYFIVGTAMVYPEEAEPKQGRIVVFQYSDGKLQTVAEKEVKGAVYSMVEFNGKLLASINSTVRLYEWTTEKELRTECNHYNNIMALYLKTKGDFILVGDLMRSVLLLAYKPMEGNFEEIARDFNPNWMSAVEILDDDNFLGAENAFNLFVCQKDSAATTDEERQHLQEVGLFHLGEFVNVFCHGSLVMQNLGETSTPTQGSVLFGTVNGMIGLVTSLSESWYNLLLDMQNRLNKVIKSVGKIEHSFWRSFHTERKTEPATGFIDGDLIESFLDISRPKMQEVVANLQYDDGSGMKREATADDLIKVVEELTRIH

SMILES: O=C1CCC(N2C(=O)c3cccc(NCCOCCOCCC(=O)N4CC[C@H](NC5=Nc6cc(F)ccc6N(CC(F)F)c6ccc(Cl)cc65)C4)c3C2=O)C(=O)N1 (stereo partly drawn) [BJG-05-014, 4-((2-(2-(3-((S)-3-((2-chloro-5-(2,2-difluoroethyl)-8-fluoro-5H-dibenzo[b,e][1,4]diazepin-11-yl)amino)pyrrolidin-1-yl)-3-oxopropoxy)ethoxy)ethyl)amino)-2-(2,6-dioxopiperidin-3-yl)isoindoline-1,3-dione]
PAK1 inhibitory activity and selectivity of NVS-PAK1-1 conjugates [1]: retained PAK1 inhibitory activity and selectivity

SMILES: O=C1CCC(N2C(=O)c3cccc(NCCCCCNC(=O)N4CC[C@H](NC5=Nc6cc(F)ccc6N(CC(F)F)c6ccc(Cl)cc65)C4)c3C2=O)C(=O)N1 (stereo partly drawn) [BJG-05-027, (3S)-3-((2-chloro-5-(2,2-difluoroethyl)-8-fluoro-5H-dibenzo[b,e][1,4]diazepin-11-yl)amino)-N-(5-((2-(2,6-dioxopiperidin-3-yl)-1,3-dioxoisoindolin-4-yl)amino)pentyl)pyrrolidine-1-carboxamide]
PAK1 inhibitory activity and selectivity of NVS-PAK1-1 conjugates [1]: retained PAK1 inhibitory activity and selectivity

IC50 [2]: > 10000 nM
increase of selectivity over PAK2 relative to NVS-PAK-1 ([2]; Table S1): more than ten-fold
reduction in PAK1 levels by immunoblot (PAK1 [3]; Figure 2A): ~ 50%
concentration at which diminished PAK1 degradation (hook effect) was observed (PAK1 [3]; [7]): ≥ 1 µM
concentration of maximal PAK1 degradation (PAK1 [3]; [7]): 10 nM
PAK1 degradation (PAK1 [3]; MCF7 and OVCAR3 cells, 24 hr treatment, immunoblot): induced degradation of PAK1
time to partial degradation of PAK1 (PAK1 [3]; MCF7 cells, 10 nM): ≤ 4 h
PAK1 degradation on co-treatment with bortezomib (proteasome inhibitor) (PAK1 [3]; co-treatment with bortezomib): prevented PAK1 destabilization
PAK1 degradation profile in Panc1 cells (PAK1 [4]): most promising profile
maximal loss of the PAK1 protein achieved (Nluc-PAK1): ≤ 70%
reduction in PAK1 expression (Nluc-PAK1; 10 nM, Nluc-PAK1 cells, 24 hr): approximately 70%
EC50 (MCF7 cells): 86 nM
EC50 (OVCAR3 cells): 100 nM
SMILES: O=C1CCC(N2C(=O)c3cccc(NCCCCCCCCNC(=O)N4CC[C@H](NC5=Nc6cc(F)ccc6N(CC(F)F)c6ccc(Cl)cc65)C4)c3C2=O)C(=O)N1 (stereo partly drawn) [BJG-05-039, (3S)-3-((2-chloro-5-(2,2-difluoroethyl)-8-fluoro-5H-dibenzo[b,e][1,4]diazepin-11-yl)amino)-N-(8-((2-(2,6-dioxopiperidin-3-yl)-1,3-dioxoisoindolin-4-yl)amino)octyl)pyrrolidine-1-carboxamide]
PAK1 inhibitory activity and selectivity of NVS-PAK1-1 conjugates [1]: retained PAK1 inhibitory activity and selectivity
downregulation of PAK1 in proteomic analysis (MOLT4 cells proteome): significant downregulation of this kinase was not apparent
downregulation of RNF166, Ikaros (IKZF1) and Aiolos (IKZF3) (MOLT4 cells proteome): strongly downregulated
phosphorylation of ERK [5]: inhibiting phosphorylation of ERK
phosphorylation of MEK S298 [5]: inhibited phosphorylation of MEK S298
anti-proliferative activity, OMM1 (OMM1 cells): did not show increased efficacy relative to NVS-PAK1-1
anti-proliferative activity, HEY-A8 (HEY-A8 cells): did not show increased efficacy relative to NVS-PAK1-1

inhibitor activity of linker conjugates of an ATP-competitive PAK1 inhibitor ([1]; Table S1): retained inhibitor activity
SMILES: Cc1ccc(CO)cc1N(Cc1ccccc1C#N)c1nc(Nc2ccc(N3CCN(CCOCCOCCNc4cccc5c4C(=O)N(C4CCC(=O)NC4=O)C5=O)CC3)c(S(C)(=O)=O)c2)ncc1F (centres unmarked) [BJG-05-093, 2-(((2-((4-(4-(2-(2-(2-((2-(2,6-dioxopiperidin-3-yl)-1,3-dioxoisoindolin-4-yl)amino)ethoxy)ethoxy)ethyl)piperazin-1-yl)-3-(methylsulfonyl)phenyl)amino)-5-fluoropyrimidin-4-yl)(5-(hydroxymethyl)-2-methylphenyl)amino)methyl)benzonitrile]

SMILES: CC(C)NC(=O)N1CC[C@H](NC2=Nc3cc(F)ccc3N(CC(F)F)c3ccc(Cl)cc32)C1 [NVS-PAK1-1]
IC50 [2]: 824 nM
phosphorylation of ERK [5]: no visible impact
phosphorylation of MEK S298 [5]: no visible impact
effect of combination with PAK shRNA on MCF7 cells (MCF7 cells; 100 nM, MCF7 cells with PAK shRNA): lethal
EC50 (MCF7 cells): 11800 nM
EC50 (OVCAR3 cells): 8900 nM
in vivo half-life [6]: short in vivo half-life

SMILES: Nc1cccc2c1CN(C1CCC(=O)NC1=O)C2=O (centres unmarked) [lenalidomide]
anti-proliferative activity, MCF7 (MCF7 cells; MTT assay, 96 hr): lacked significant antiproliferative effects
anti-proliferative activity, OVCAR3 (OVCAR3 cells; MTT assay, 96 hr): lacked significant antiproliferative effects
